Results as given in ChEMBL document CHEMBL4190385, “Benzofuran-pyran hybrids: A new class of potential bone anabolic agents” (Bioorg Med Chem Lett, 2018).
Calls of active or inactive are those of the source. The calls are words filed in the database; no cut-off is given here.

Tests used:
Calvarial osteoblast [1] = test: Cytotoxicity in rat calvarial osteoblasts assessed as reduction in cell viability at 1 pM to 1 uM incubated for 48 hrs by MTT assay; format: cell-based
Calvarial osteoblast [2] = test: Stimulation of osteoblast differentiation in rat calvarial osteoblasts assessed as increase in ALP activity at 1 pM to 100 uM using p-nitrophenylphosphate substrate incubated for 48 hrs by colorimetry; format: functional, cell-based
Calvarial osteoblast [3] = test: Stimulation of mineralization in rat calvarial osteoblasts assessed as increase in calcium nodules at 100 pM by Alizarin red S staining based photography; format: functional, cell-based
Calvarial osteoblast [4] = test: Stimulation of mineralization in rat calvarial osteoblasts assessed as increase in calcium nodules at 1 uM by Alizarin red S staining based photography; format: functional, cell-based
[5] = Increase in Runx-2 mRNA expression in Sprague-Dawley rat bone marrow stromal cells at 10 nM incubated for 7 days hrs by qPCR method; format: functional
Calvarial osteoblast [6] = test: Increase in COL1 mRNA expression in rat calvarial osteoblasts at 10 nM incubated for 72 hrs by qPCR method; format: functional
Calvarial osteoblast [7] = test: Increase in BMP2 mRNA expression in rat calvarial osteoblasts at 10 nM incubated for 72 hrs by qPCR method; format: functional
[8] = Increase in Osx mRNA expression in Sprague-Dawley rat bone marrow stromal cells at 10 nM incubated for 7 days hrs by qPCR method; format: functional
[9] = Increase in BMP2 mRNA expression in Sprague-Dawley rat bone marrow stromal cells at 10 nM incubated for 7 days hrs by qPCR method; format: functional
Rattus norvegicus [10] = species on record: Rattus norvegicus; test: Stimulation of mineralization in Sprague-Dawley rat bone marrow stromal cells assessed as increase in calcium nodules at 10 nM incubated for 18 days hrs by Alizarin red S staining based photography; format: functional
[11] = Increase in BMP2 mRNA expression in Sprague-Dawley rat bone marrow stromal cells at 1 uM incubated for 7 days hrs by qPCR method; format: functional
Calvarial osteoblast [12] = test: Stimulation of osteoblast differentiation in rat calvarial osteoblasts assessed as increase in ALP activity at 100 nM using p-nitrophenylphosphate substrate incubated for 48 hrs by colorimetry; format: functional, cell-based
Calvarial osteoblast [13] = test: Increase in Runx-2 mRNA expression in rat calvarial osteoblasts at 10 nM incubated for 72 hrs by qPCR method; format: functional
Rattus norvegicus [14] = species on record: Rattus norvegicus; test: Stimulation of mineralization in Sprague-Dawley rat bone marrow stromal cells assessed as increase in calcium nodules at 1 uM incubated for 18 days hrs by Alizarin red S staining based photography; format: functional
Calvarial osteoblast [15] = test: Stimulation of mineralization in rat calvarial osteoblasts assessed as increase in calcium nodules at 10 nM by Alizarin red S staining based photography; format: functional, cell-based
Calvarial osteoblast [16] = test: Stimulation of mineralization in rat calvarial osteoblasts assessed as increase in calcium nodules at 10 pM by Alizarin red S staining based photography; format: functional, cell-based
Calvarial osteoblast [17] = test: Stimulation of osteoblast differentiation in rat calvarial osteoblasts assessed as increase in ALP activity at 1 uM using p-nitrophenylphosphate substrate incubated for 48 hrs by colorimetry; format: functional, cell-based

Compound	Activity (Calvarial osteoblast [1])	Activity (Calvarial osteoblast [2])	Activity (Calvarial osteoblast [3])	Activity (Calvarial osteoblast [15])	further results
CCc1cc(C2C(C#N)=C(N)OC3=C2C(=O)CC(C)(C)C3)cc2cc(C(=O)c3ccc(OC)cc3)oc12 (centres undefined)	Non-Toxic	Active	inactive	–	–
Cc1ccc(C(=O)c2cc3cc(C4C(C#N)=C(N)OC5=C4C(=O)CC(C)(C)C5)cc(C(C)(C)C)c3o2)cc1 (centres undefined)	Non-Toxic	Active	–	–	Activity (Calvarial osteoblast [4]): Active
COc1ccc(C(=O)c2cc3cc(C4C(C#N)=C(N)OC5=C4C(=O)CC(C)(C)C5)cc(C)c3o2)cc1 (centres undefined)	Non-Toxic	Active	–	Active	fold change (FC) [5]: 2; fold change (FC) (Calvarial osteoblast [6]): 1.8; fold change (FC) (Calvarial osteoblast [7]): 2.2; fold change (FC) [8]: 3; fold change (FC) [9]: 2.8; Activity (Rattus norvegicus [10]): Active; fold change (FC) [11]: 1.8; Activity (Calvarial osteoblast [12]): Active; fold change (FC) (Calvarial osteoblast [13]): 2.4; Activity (Rattus norvegicus [14]): Active
CC1(C)CC(=O)C2=C(C1)OC(N)=C(C#N)C2c1cc(C(C)(C)C)c2oc(C(=O)c3ccc(Cl)cc3)cc2c1 (centres undefined)	Non-Toxic	Active	–	–	Activity (Calvarial osteoblast [16]): inactive
Cc1ccc(C(=O)c2cc3cc(C4C(C#N)=C(N)OC5=C4C(=O)CC(C)(C)C5)cc(C)c3o2)cc1 (centres undefined)	Non-Toxic	Active	–	inactive	Activity (Calvarial osteoblast [17]): Active
COc1ccc(C(=O)c2cc3cc(C4C(C#N)=C(N)OC5=C4C(=O)CC(C)(C)C5)cc(C(C)(C)C)c3o2)cc1 (centres undefined)	Non-Toxic	Active	inactive	–	–
